≈ marks a conversion by molar mass, not a printed value.
What was measured:
Assay type in all cases: cell-based
[1] = tested on: Staphylococcus aureus ATCC 6538P; test: In vitro agar dilution MIC, organism code AA; conditions: Table 1B, unit assumed
Experimental: (§1) Representative compounds of the present invention were assayed in vitro for antibacterial activity as follows: Twelve petri dishes containing successive aqueous dilutions of the test compound mixed with 10 mL of sterilized Brain Heart Infusion (BHI) agar (Difco 0418-01-5) were prepared. Each plate was inoculated with 1:100 (or 1:10 for slow-growing strains, such as Micrococcus and Streptococcus) dilutions of up to 32 different microorganisms, using a Steers replicator block. The inoculated plates were incubated at 35-37° C. for 20 to 24 hours. In addition, a control plate, using BHI agar containing no test compound, was prepared and incubated at the beginning and end of each test.
(§2) An additional plate containing a compound having known susceptibility patterns for the organisms being tested and belonging to the same antibiotic class as the test compound was also prepared and incubated as a further control, as well as to provide test-to-test comparability.
(§3) After incubation, each plate was visually inspected. The minimum inhibitory concentration (MIC) was defined as the lowest concentration of drug yielding no growth, a slight haze, or sparsely isolated colonies on the inoculum spot as compared to the growth control.

[2] = tested on: Staphylococcus aureus A5177; test: In vitro agar dilution MIC, organism code BB; conditions: Table 1B, in µg/mL (unit assumed)
Experimental: as §1, §2, §3

[3] = tested on: Staphylococcus aureus A-5278; test: In vitro agar dilution MIC, organism code CC; conditions: Table 1B, unit assumed
Experimental: as §1, §2, §3

[4] = tested on: Staphylococcus aureus CMX 642A; test: In vitro agar dilution MIC, organism code DD; conditions: Table 1B, unit assumed
Experimental: as §1, §2, §3

[5] = tested on: Staphylococcus aureus NCTC10649M; test: In vitro agar dilution MIC, organism code EE; conditions: Table 1B, unit assumed
Experimental: as §1, §2, §3

[6] = tested on: Staphylococcus aureus CMX 553; test: In vitro agar dilution MIC, organism code FF; conditions: Table 1B, unit assumed
Experimental: as §1, §2, §3

[7] = tested on: Staphylococcus aureus 1775; test: In vitro agar dilution MIC, organism code GG; conditions: Table 1B, unit assumed
Experimental: as §1, §2, §3

[8] = tested on: Staphylococcus epidermidis 3519; test: In vitro agar dilution MIC, organism code HH; conditions: Table 1B, in µg/mL (unit assumed)
Experimental: as §1, §2, §3

[9] = tested on: Enterococcus faecium ATCC 8043; test: In vitro agar dilution MIC, organism code II; conditions: Table 1B, unit assumed
Experimental: as §1, §2, §3

[10] = tested on: Streptococcus bovis A-5169; test: In vitro agar dilution MIC, organism code JJ; conditions: Table 1B, unit assumed
Experimental: as §1, §2, §3

[11] = tested on: Streptococcus agalactiae CMX 508; test: In vitro agar dilution MIC, organism code KK; conditions: Table 1B, unit assumed
Experimental: as §1, §2, §3

[12] = tested on: Streptococcus pyogenes EES61; test: In vitro agar dilution MIC, organism code LL; conditions: unit assumed
Experimental: as §1, §2, §3

[13] = tested on: Streptococcus pyogenes 930; test: In vitro agar dilution MIC, organism code MM; conditions: unit assumed
Experimental: as §1, §2, §3

[14] = tested on: Streptococcus pyogenes PIU 2548; test: In vitro agar dilution MIC, organism code NN; conditions: unit assumed
Experimental: as §1, §2, §3

[15] = tested on: Micrococcus luteus ATCC 9341; test: In vitro agar dilution MIC, organism code OO; conditions: Table 1B, unit assumed
Experimental: as §1, §2, §3

[16] = tested on: Micrococcus luteus ATCC 4698; test: In vitro agar dilution MIC, organism code PP; conditions: Table 1B, in µg/mL (unit assumed)
Experimental: as §1, §2, §3

Escherichia coli JUHL = test: In vitro agar dilution MIC, organism code QQ; conditions: Table 1B, in µg/mL (unit assumed)
Experimental: as §1, §2, §3

Escherichia coli SS = test: In vitro agar dilution MIC, organism code RR; conditions: Table 1B, in µg/mL (unit assumed)
Experimental: as §1, §2, §3

Escherichia coli DC-2 = test: In vitro agar dilution MIC, organism code SS; conditions: Table 1B, unit assumed
Experimental: as §1, §2, §3

Candida albicans CCH 442 = test: In vitro agar dilution MIC, organism code TT; conditions: Table 1B, unit assumed
Experimental: as §1, §2, §3

[17] = tested on: Mycobacterium smegmatis ATCC 114; test: In vitro agar dilution MIC, organism code UU; conditions: Table 1B, in µg/mL (unit assumed)
Experimental: as §1, §2, §3

[18] = tested on: Nocardia asteroides ATCC 9970; test: In vitro agar dilution MIC, organism code VV; conditions: Table 1B, in µg/mL (unit assumed)
Experimental: as §1
as §2, with “comparability. Erythromycin A was used for this purpose.” for “comparability.”
as §3

[19] = tested on: Haemophilis influenzae DILL AMP R; test: In vitro agar dilution MIC, organism code WW; conditions: unit assumed
Experimental: as §1, §2, §3

[20] = tested on: Streptococcus pneumoniae ATCC 6303; test: In vitro agar dilution MIC, organism code XX; conditions: unit assumed
Experimental: as §1, §2, §3

[21] = tested on: Streptococcus pneumoniae GYR 1171; test: In vitro agar dilution MIC, organism code YY; conditions: Table 1B, unit assumed
Experimental: as §1, §2, §3

[22] = tested on: Streptococcus pneumoniae 5979; test: In vitro agar dilution MIC, organism code ZZ; conditions: unit assumed
Experimental: as §1, §2, §3

[23] = tested on: Streptococcus pneumoniae 5649; test: In vitro agar dilution MIC, organism code ZZA; conditions: unit assumed
Experimental: as §1, §2, §3

Structure (SMILES) | MIC [1] [µg/mL] | MIC [2] | MIC [3] [µg/mL] | MIC [4] [µg/mL] | MIC [5] [µg/mL] | MIC [6] [µg/mL] | MIC [7] [µg/mL] | MIC [8] | MIC [9] [µg/mL] | MIC [10] [µg/mL] | MIC [11] [µg/mL] | MIC ([12]; Table 1B) [µg/mL] | MIC ([13]; Table 1B) [µg/mL] | MIC ([14]; Table 1B) [µg/mL] | MIC [15] [µg/mL] | MIC [16] | MIC (Escherichia coli JUHL) | MIC (Escherichia coli SS) | MIC (Escherichia coli DC-2) [µg/mL] | MIC (Candida albicans CCH 442) [µg/mL] | further results
CC[C@H]1OC(=O)[C@@](C)(F)C(=O)[C@H](C)[C@@H](O[C@@H]2O[C@H](C)C[C@H](N(C)C)[C@H]2O)[C@](C)(OC/C=C/c2cnc3ncccc3c2)C[C@@H](C)C(=O)[C@H](C)[C@H]2NC(=O)O[C@@]21C [Example 11] | 0.05 (≈ 0.0637 µM) | 0.05 | > 100 | 0.05 (≈ 0.0637 µM) | 0.05 (≈ 0.0637 µM) | 0.05 (≈ 0.0637 µM) | 100 (≈ 127 µM) | 0.05 | 0.05 (≈ 0.0637 µM) | 0.01 (≈ 0.0127 µM) | 0.01 (≈ 0.0127 µM) | 0.39 (≈ 0.497 µM) | 0.1 (≈ 0.127 µM) | 0.01 (≈ 0.0127 µM) | 0.01 (≈ 0.0127 µM) | 0.05 | 25 | 0.2 | 12.5 (≈ 15.9 µM) | > 100 | MIC [17]: 0.78; MIC [18]: 0.01; MIC ([19]; Table 1B): 2 µg/mL (≈ 2.55 µM); MIC ([20]; Table 1B): ≤ 0.004 µg/mL; MIC [21]: ≤ 0.004 µg/mL; MIC ([22]; Table 1B): 0.125 µg/mL (≈ 0.159 µM); MIC ([23]; Table 1B): 0.25 µg/mL (≈ 0.319 µM)
CC[C@H]1OC(=O)[C@@](C)(F)C(=O)[C@H](C)[C@@H](O[C@@H]2O[C@H](C)C[C@H](N(C)C)[C@H]2O)[C@](C)(OC/C=C/c2ccc3nccnc3c2)C[C@@H](C)C(=O)[C@H](C)[C@H]2NC(=O)O[C@@]21C [Example 12] | 0.05 (≈ 0.0637 µM) | 0.05 | > 100 | 0.05 (≈ 0.0637 µM) | 0.05 (≈ 0.0637 µM) | 0.05 (≈ 0.0637 µM) | > 100 | 0.05 | 0.01 (≈ 0.0127 µM) | ≤ 0.005 | 0.01 (≈ 0.0127 µM) | 0.01 (≈ 0.0127 µM) | 0.2 (≈ 0.255 µM) | 0.05 (≈ 0.0637 µM) | ≤ 0.005 | 0.05 | 12.5 | 0.1 | 12.5 (≈ 15.9 µM) | > 100 | MIC ([12]; Table 1D): ≤ 0.04 µg/mL; MIC ([13]; Table 1D): 0.5 µg/mL (≈ 0.637 µM); MIC ([14]; Table 1D): 0.125 µg/mL (≈ 0.159 µM); MIC [17]: 0.2; MIC [18]: ≤ 0.005; MIC ([19]; Table 1B): 2 µg/mL (≈ 2.55 µM); MIC ([19]; Table 1D): 2 µg/mL (≈ 2.55 µM); MIC ([20]; Table 1B): ≤ 0.004 µg/mL; MIC ([20]; Table 1D): ≤ 0.004 µg/mL; MIC [21]: ≤ 0.004 µg/mL; MIC ([22]; Table 1B): 1 µg/mL (≈ 1.27 µM); MIC ([22]; Table 1D): 1 µg/mL (≈ 1.27 µM); MIC ([23]; Table 1B): 0.125 µg/mL (≈ 0.159 µM); MIC ([23]; Table 1D): 0.125 µg/mL (≈ 0.159 µM)
CC[C@H]1OC(=O)[C@@](C)(F)C(=O)[C@H](C)[C@@H](O[C@@H]2O[C@H](C)C[C@H](N(C)C)[C@H]2O)[C@](C)(OC/C=C/c2cnc3ccc(N(C)C)cc3c2)C[C@@H](C)C(=O)[C@H](C)[C@H]2NC(=O)O[C@@]21C [Example 13] | 0.2 (≈ 0.242 µM) | 0.2 | > 100 | 0.2 (≈ 0.242 µM) | 0.2 (≈ 0.242 µM) | 0.2 (≈ 0.242 µM) | > 100 | 0.2 | 0.1 (≈ 0.121 µM) | 0.02 (≈ 0.0242 µM) | 0.02 (≈ 0.0242 µM) | 0.05 (≈ 0.0605 µM) | 0.78 (≈ 0.943 µM) | 0.2 (≈ 0.242 µM) | 0.02 (≈ 0.0242 µM) | 0.2 | 50 | 0.78 | 100 (≈ 121 µM) | > 100 | MIC [17]: 0.78; MIC [18]: 0.05; MIC ([19]; Table 1B): 8 µg/mL (≈ 9.67 µM); MIC ([20]; Table 1B): 0.06 µg/mL (≈ 0.0726 µM); MIC [21]: 0.06 µg/mL (≈ 0.0726 µM); MIC ([22]; Table 1B): 1 µg/mL (≈ 1.21 µM); MIC ([23]; Table 1B): 0.5 µg/mL (≈ 0.605 µM)

Reference: US6124269A, “2-Halo-6-O-substituted ketolide derivatives” (priority 1998, dated 2000)
